Results published in paper PMC8682738, “Constrained peptides mimic a viral suppressor of RNA silencing” (Nucleic Acids Research, 2021).
Positions of bridges follow the written chain, without caps; N, C: chain ends. Non-standard residues stand in square brackets, D forms with d. Residues, ends and D or L forms follow the SMILES beside them. *: point of attachment. FITC = O=C1OC2(c3ccc(O)cc3Oc3cc(O)ccc32)c2ccc(NC(=S)*)cc21; S5 = C=CCCC[C@](C)(N)C(=O)O; AEEA = NCCOCCOCC(=O)O

How the values were obtained:
[1] = CD spectroscopy, secondary structure content; assay type: physicochemical; conditions: fluorescein-labeled peptide 75 μM, 10 mM sodium phosphate pH 7.4, CDNN/PEPFIT; for Helix (α-helicity): unbound
Protocol: Spectra of fluorescein-labeled peptides were recorded with a J-715 circular dichroism spectrometer (Jasco) using a stoppered quartz cuvette (1 mm; Hellma). Peptide samples (c = 75 μM) were prepared in buffer: 10 mM disodium hydrogen phosphate, pH 7.4. For each sample, 10 CD spectra were measured between λ = 190 and 260 nm with continuous scan mode (10 mdeg sensitivity, 1.0 nm resolution, 1.0 nm bandwidth, 2 s integration time, 50 nm/min scan rate). Obtained spectra were averaged, then subtracted from a reference buffer spectrum and smoothed using a fast Fourier transform filter (FFT filter). The mean residue ellipticity (Θ) (deg·cm^2·dmol^−1·10^4) was calculated using Formula (2) and plotted against wavelength (λ) (nm). The ratio of secondary structure elements was calculated with CDNN using the PEPFIT set of reference spectra for secondary structure determination ([45],[46]):(2) where [Θ]m = mean molar ellipticity per peptide bond (degree·cm^2·dmol^−1·10^4), Θ = measured ellipticity (degree), d = optical path length (cm), cg = mass concentration (g·l^−1), MRW = mean residue weight, M = molar mass of the peptide (g·mol^−1) and N = number of peptide bonds.

proteinase K = proteinase K (Parengyodontium album, UniProt P06873); experiment: Protease stability assay; assay type: in vitro ADME; conditions: proteinase K 10 μg·ml^−1, fluorescein-labeled peptide 50 μM, 10 mM Tris pH 8.0, 150 mM NaCl, room temperature, HPLC absorbance 210 nm, exponential decay fit
Chain of proteinase K (P06873 106-384): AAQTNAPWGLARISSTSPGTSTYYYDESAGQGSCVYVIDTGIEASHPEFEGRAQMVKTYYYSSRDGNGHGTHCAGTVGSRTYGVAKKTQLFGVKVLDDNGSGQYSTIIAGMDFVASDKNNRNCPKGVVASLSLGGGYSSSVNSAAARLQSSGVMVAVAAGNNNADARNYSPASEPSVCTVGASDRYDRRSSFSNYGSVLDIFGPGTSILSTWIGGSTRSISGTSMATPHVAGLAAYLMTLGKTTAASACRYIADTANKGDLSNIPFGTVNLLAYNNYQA
Protocol: Protease stability assays were performed in analogy to a previously published protocol ([47]). Stocks of fluorescein-labeled peptides were prepared to a concentration of 55.5 μM in assay buffer (10 mM Tris, pH 8.0, 150 mM NaCl) and separately stocks of proteinase K also in assay buffer (c = 100 μg·ml^−1). To begin each experiment, peptide and proteinase K stocks were mixed (final concentrations: c = 10 μg·ml^−1 proteinase K, c = 50 μM fluorescein-labeled peptide; final volume = 500 μl) and incubated at room temperature. At each time point, 50 μl of the reaction mixture was quenched by adding 100 μl of TFA/ACN/H2O (v/v/v, 1:49:49) and subsequently incubated for 2 min on ice. Following centrifugation (15 min, 13200 rpm, 4°C), samples (45 μl) were monitored by analytical HPLC using a linear gradient of 10–60% HPLC solvent B over 20 min. The amount of remaining peptide was quantified via absorbance at λ = 210 nm (intact peptide (%)) and plotted against time (t) (h). Half-life (t1/2) was calculated by fitting the data to an exponential decay using the software Prism 5.0 (GraphPad).

Structure (SMILES) | Random coil [1] [%] | β-Sheet [1] [%] | β-Turn [1] [%] | Helix (α-helicity) [1] [%] | Half-life (t1/2) (proteinase K) [h]
CC(C)C[C@@H]1NC(=O)[C@@](C)(NC(=O)[C@H](CO)NC(=O)[C@H](CCCNC(=N)N)NC(=O)[C@H](CCCNC(=N)N)NC(=O)[C@H](CCC(N)=O)NC(=O)[C@H](CCC(=O)O)NC(=O)[C@H](CO)NC(=O)[C@@H]2CCCN2C(=O)[C@H](CO)NC(=O)[C@H](CCCCN)NC(=O)[C@H](Cc2c[nH]cn2)NC(=O)CNC(=O)[C@H](CCCNC(=N)N)NC(=O)[C@H](CCC(=O)O)NC(=O)[C@H](CCCCN)NC(=O)[C@H](CCCNC(=N)N)NC(=O)[C@H](CC(N)=O)NC(=O)[C@]2(C)CCCC=CCCC[C@](C)(NC(=O)[C@H](CCCNC(=N)N)NC(=O)[C@H](CCC(N)=O)NC(=O)[C@H](C)NC(=O)[C@H](CCC(N)=O)NC(=O)[C@H](CCCCN)NC(=O)[C@H](CCCCN)NC(=O)COCCOCCNC(=S)Nc3ccc4c(c3)C(=O)OC43c4ccc(O)cc4Oc4cc(O)ccc43)C(=O)N[C@@H](CCCNC(=N)N)C(=O)N[C@@H](Cc3c[nH]cn3)C(=O)N[C@@H](CCCCN)C(=O)N2)CCCC=CCCC[C@@](C)(C(=O)N[C@@H](CCCNC(=N)N)C(N)=O)NC(=O)[C@H](Cc2c[nH]cn2)NC(=O)[C@H](Cc2c[nH]c3ccccc23)NC1=O [C2] ({FITC-AEEA}-KKQAQR[S5]RHK[S5]NRKERGHKSPSEQRRS[S5]LWH[S5]R-NH2; staple 7-11, 28-32) | 41.6 | 3.3 | 4.2 | 61.8 | 7.33
CC(C)C[C@H](NC(=O)[C@H](CCCCN)NC(=O)[C@H](Cc1c[nH]cn1)NC(=O)[C@H](CCCNC(=N)N)NC(=O)[C@H](CCCCN)NC(=O)[C@H](CCCNC(=N)N)NC(=O)[C@H](CCC(N)=O)NC(=O)[C@H](C)NC(=O)[C@H](CCC(N)=O)NC(=O)[C@H](CCCCN)NC(=O)[C@H](CCCCN)NC(=O)COCCOCCNC(=S)Nc1ccc2c(c1)C(=O)OC21c2ccc(O)cc2Oc2cc(O)ccc21)C(=O)N[C@@H](CC(N)=O)C(=O)N[C@@H](CCCNC(=N)N)C(=O)N[C@@H](CCCCN)C(=O)N[C@@H](CCC(=O)O)C(=O)N[C@@H](CCCNC(=N)N)C(=O)NCC(=O)N[C@@H](Cc1c[nH]cn1)C(=O)N[C@@H](CCCCN)C(=O)N[C@@H](CO)C(=O)N1CCC[C@H]1C(=O)N[C@@H](CO)C(=O)N[C@@H](CCC(=O)O)C(=O)N[C@@]1(C)CCCC=CCCC[C@@](C)(C(=O)N[C@@H](CC(C)C)C(=O)N[C@@H](Cc2c[nH]c3ccccc23)C(=O)N[C@@H](Cc2c[nH]cn2)C(=O)N[C@@H](C)C(=O)N[C@@H](CCCNC(=N)N)C(N)=O)NC(=O)[C@H](CO)NC(=O)[C@H](CCCNC(=N)N)NC(=O)[C@H](CCCNC(=N)N)NC1=O [B] ({FITC-AEEA}-KKQAQRKRHKLNRKERGHKSPSE[S5]RRS[S5]LWHAR-NH2; staple 24-28) | 46.0 | 6.8 | 13.9 | 30.5 | 1.08
CC(C)C[C@H](NC(=O)[C@H](CCCCN)NC(=O)[C@H](Cc1c[nH]cn1)NC(=O)[C@H](CCCNC(=N)N)NC(=O)[C@H](CCCCN)NC(=O)[C@H](CCCNC(=N)N)NC(=O)[C@H](CCC(N)=O)NC(=O)[C@H](C)NC(=O)[C@H](CCC(N)=O)NC(=O)[C@H](CCCCN)NC(=O)[C@H](CCCCN)NC(=O)COCCOCCNC(=S)Nc1ccc2c(c1)C(=O)OC21c2ccc(O)cc2Oc2cc(O)ccc21)C(=O)N[C@@H](CC(N)=O)C(=O)N[C@@H](CCCNC(=N)N)C(=O)N[C@@H](CCCCN)C(=O)N[C@@H](CCC(=O)O)C(=O)N[C@@H](CCCNC(=N)N)C(=O)NCC(=O)N[C@@H](Cc1c[nH]cn1)C(=O)N[C@@H](CCCCN)C(=O)N[C@@H](CO)C(=O)N1CCC[C@H]1C(=O)N[C@@H](CO)C(=O)N[C@@H](CCC(=O)O)C(=O)N[C@@H](CCC(N)=O)C(=O)N[C@@H](CCCNC(=N)N)C(=O)N[C@@H](CCCNC(=N)N)C(=O)N[C@@H](CO)C(=O)N[C@@]1(C)CCCC=CCCC[C@@](C)(C(=O)N[C@@H](CCCNC(=N)N)C(N)=O)NC(=O)[C@H](Cc2c[nH]cn2)NC(=O)[C@H](Cc2c[nH]c3ccccc23)NC(=O)[C@H](CC(C)C)NC1=O [C] ({FITC-AEEA}-KKQAQRKRHKLNRKERGHKSPSEQRRS[S5]LWH[S5]R-NH2; staple 28-32) | 63.6 | 2.8 | 7.6 | 28.4 | 1.3
CC(C)C[C@@H]1NC(=O)[C@@](C)(NC(=O)[C@H](CO)NC(=O)[C@H](CCCNC(=N)N)NC(=O)[C@H](CCCNC(=N)N)NC(=O)[C@H](CCC(N)=O)NC(=O)[C@H](CCC(=O)O)NC(=O)[C@H](CO)NC(=O)[C@@H]2CCCN2C(=O)[C@H](CO)NC(=O)[C@H](CCCCN)NC(=O)[C@H](Cc2c[nH]cn2)NC(=O)CNC(=O)[C@H](CCCNC(=N)N)NC(=O)[C@]2(C)CCCC=CCCC[C@](C)(NC(=O)[C@H](CCCCN)NC(=O)[C@H](Cc3c[nH]cn3)NC(=O)[C@H](CCCNC(=N)N)NC(=O)[C@H](CCCCN)NC(=O)[C@H](CCCNC(=N)N)NC(=O)[C@H](CCC(N)=O)NC(=O)[C@H](C)NC(=O)[C@H](CCC(N)=O)NC(=O)[C@H](CCCCN)NC(=O)[C@H](CCCCN)NC(=O)COCCOCCNC(=S)Nc3ccc4c(c3)C(=O)OC43c4ccc(O)cc4Oc4cc(O)ccc43)C(=O)N[C@@H](CC(N)=O)C(=O)N[C@@H](CCCNC(=N)N)C(=O)N[C@@H](CCCCN)C(=O)N2)CCCC=CCCC[C@@](C)(C(=O)N[C@@H](CCCNC(=N)N)C(N)=O)NC(=O)[C@H](Cc2c[nH]cn2)NC(=O)[C@H](Cc2c[nH]c3ccccc23)NC1=O [C3] ({FITC-AEEA}-KKQAQRKRHK[S5]NRK[S5]RGHKSPSEQRRS[S5]LWH[S5]R-NH2; staple 11-15, 28-32) | 37.0 | 4.3 | 6.2 | 59.3 | 5.05
CC(C)C[C@H](NC(=O)[C@]1(C)CCCC=CCCC[C@](C)(NC(=O)[C@H](CCC(=O)O)NC(=O)[C@H](CO)NC(=O)[C@@H]2CCCN2C(=O)[C@H](CO)NC(=O)[C@H](CCCCN)NC(=O)[C@H](Cc2c[nH]cn2)NC(=O)CNC(=O)[C@H](CCCNC(=N)N)NC(=O)[C@H](CCC(=O)O)NC(=O)[C@H](CCCCN)NC(=O)[C@H](CCCNC(=N)N)NC(=O)[C@H](CC(N)=O)NC(=O)[C@]2(C)CCCC=CCCC[C@](C)(NC(=O)[C@H](CCCNC(=N)N)NC(=O)[C@H](CCC(N)=O)NC(=O)[C@H](C)NC(=O)[C@H](CCC(N)=O)NC(=O)[C@H](CCCCN)NC(=O)[C@H](CCCCN)NC(=O)COCCOCCNC(=S)Nc3ccc4c(c3)C(=O)OC43c4ccc(O)cc4Oc4cc(O)ccc43)C(=O)N[C@@H](CCCNC(=N)N)C(=O)N[C@@H](Cc3c[nH]cn3)C(=O)N[C@@H](CCCCN)C(=O)N2)C(=O)N[C@@H](CCCNC(=N)N)C(=O)N[C@@H](CCCNC(=N)N)C(=O)N[C@@H](CO)C(=O)N1)C(=O)N[C@@H](Cc1c[nH]c2ccccc12)C(=O)N[C@@H](Cc1c[nH]cn1)C(=O)N[C@@H](C)C(=O)N[C@@H](CCCNC(=N)N)C(N)=O [B2] ({FITC-AEEA}-KKQAQR[S5]RHK[S5]NRKERGHKSPSE[S5]RRS[S5]LWHAR-NH2; staple 7-11, 24-28) | 12.5 | 2.4 | 10.3 | 82.2 | 8.93
